Assay results published in patent US9144595B2, “APLs for treating arthritis” (University of Tennessee Research Foundation, priority 2009, dated 2015).
“And” between values parts separate entries of the source, which are not always exact repeats. Identical values can stand only once.

Experiments:
[1] = tested on: splenocytes of DR1 transgenic mice; test: Oral APL A12: IFNγ production by cultured splenocytes of DR1 transgenic mice; type: in vivo, mouse
RA PBMC [2] = test: 27 cytokines multiplex assay of 48 h RA PBMC culture supernatants; type: cell-based, human; details: APL A12 10 μg/ml + α1(II) 50 μg/ml, 6 RA patients
Procedure: (§1) We assessed the ability of APL A12 added to cultures of PBMC to affect production of IFNγ and other Th1 and Th2 cytokines by the cultured PBMC stimulated with α1(II) from 18 RA patients, 16 of whom had known HLA DR B1 haplotypes. 16 of these patients were taking methothexate, 10 NSAIDS and 12 anti-TNF agents. One patient was taking Arava. Isolated PBMC were resuspended in Dulbecco's minimal essential medium containing penicillin (100 U/ml), streptomycin (100 μg/ml), 9% fetal calf serum (FCS), and non-essential amino acids thereafter referred to as “Complete Medium” at a concentration of 4×10^6 cells/ml. Aliquots (0.5 ml) of the cell suspension were dispensed into wells of 48 well tissue culture plates (NUNC, Roskilde, Denmark).

RA PBMC [3] = test: APL A12 inhibition of IFNγ production by α1(II)-stimulated RA PBMC; type: cell-based, human; details: for IFNy Stimulation Index: 144 h
Procedure: as §1

Zap-70 = Zap-70 phosphorylation in CD4+ T cells of DR1/TCR transgenic mice (flow cytometry); type: cell-based, mouse; details: APCs prepulsed with peptide; data not shown
DR4 mice = test: Suppression of immunity to CII and arthritis in DR4 mice; type: in vivo, mouse; details: high-responder DR4 mice
Procedure: Assuming that CII263-270 was key to developing immunity to the intact CII molecule, a number of analog peptides where amino acids within this small segment were substituted with those found in the corresponding sites of nonarthritogenic type I collagen were prepared and tested. […] The APL A12 developed for this study has the following amino acid sequence: LGPKGQTGEBG[IAGNKGDQGPK]GEBGPA (SEQ ID NO: 3) where B=hydroxproline. The core determinant of human CII263-270 is bracketed. The underlined residues are those substituted to produce APL A12. The residues amino terminal and carboxy terminal to the core determinant is from the normal human CII sequence.

[4] = tested on: Peyer's Patch cells of DR1 TCRtg+/+ mice; test: Oral APL A12: IL-17 and IL-10 in cultures of Peyer's Patch cells of DR1 TCRtg+/+ mice; type: in vivo, mouse
DR1 Transgenic mice = test: Oral (gavage) APL A12 suppression of CIA in DR1 transgenic mice; type: in vivo, mouse; details: for arthritis severity: FIG. 1
[5] = tested on: splenocytes and lymph node cells from DR1 Transgenic mice; test: Cytokine secretion by splenocytes and lymph node cells of DR1 Transgenic mice immunized with CII or Analog A12; type: cell-based, mouse
From the text: One of the most important characteristics of the A12 analog peptide was its ability to induce a Th2-type cytokine secretion profile. In this set of experiments, DR1 transgenic mice were immunized with A12 peptide or CII emulsified with CFA. […] In contrast, cells from mice immunized with CII generated predominantly a Th1 response to the wild-type peptide. […] The ability to induce the secretion of Th2 cytokines may explain the profound suppressive effects A12 has on the development of CIA.
One of the most important characteristics of the A12 analog peptide is its ability to reduce a Th1 cytokine profile and induce a Th2-type cytokine secretion profile in humans and in DR1 transgenic mice. In work we have published, DR1 transgenic mice were immunized with A12 peptide or CII emulsified with CFA. […] In contrast, cells from mice immunized with CII generated multiple cytokines, but predominantly a Th1 response to the wild-type peptide. Importantly, although immunized with CII, they responded to A12 with only a Th2 response.

[6] = tested on: Spleen tyrosine kinase (Syk); test: Syk phosphorylation in CD4+ T cells of DR1/TCR transgenic mice (flow cytometry); type: cell-based, mouse; details: APCs prepulsed with peptide, compared with media controls
From the text: Since T cells clearly responded to A12 differently than to the wild type A2 peptide, we analyzed them for the possibility that they might be utilizing an alternative signaling pathway. Spleen tyrosine kinase (Syk), a kinase ordinarily utilized by B cells was selected for further analysis. In these experiments, CD4^+ T-cells from the DR1/TCR transgenic mice were purified by negative selection (using a Miltenyi kit) and stained with an antibody specific for phospho Syk following exposure to APCs prepulsed with either A2 or A12. […] Histograms were generated using flow cytometry with gating specifically on the CD4^+ population, confirming that the changes observed were produced by T-cells.
FIGS. 5A and 5B show T cell signaling induced by A2 and A12. Flow cytometry was performed using purified CD4+ T cells from spleens of DR1 TCR Tg mice. The T cells were stimulated by APCs pre-pulsed with A2, A12 or no peptide (Control) for 5 minutes. The cells were then fixed, permeabilized, and stained with an antibody specific for phospho-Syk (Tyr 323) (left panel) or phospho-ERK 1/2 (right panel) and analyzed by flow cytometry. Both plots are gated on CD4 T cells. Axes 510, 540, show the number of events and axes 515, 545 show a logarithmic scale for Anti-phospho Erk and Syk respectively, for FIGS. 5A and 5B. In FIG. 5A line 520 is for A2 peptide, line 525 is the control, and line 530 is the A12 peptide. […]

[7] = mice gavaged with 50 μg APL A12 9 times over 2 weeks, cells cultured with PBS
[8] = mice gavaged with 50 μg APL A12, cells cultured with APL A12 50 μg/ml
[9] = mice gavaged with 50 μg APL A12, cells cultured with CII263-270 50 μg/ml
[10] = mice gavaged with PBS, cells cultured with APL A12 50 μg/ml
[11] = Immunogen Analog A12, cultured with 100 μg/ml A12
[12] = Immunogen Analog A12, cultured with 100 μg/ml PPD
[13] = Immunogen Analog A12, cultured with 100 μg/ml Wild-type Peptide
[14] = Immunogen Analog A12, cultured with 100 μg/ml α1(II)
[15] = Immunogen CII, cultured with 100 μg/ml A12

Sequence: LGPKGQTGEBGIAGAKGDQGPKGEBGPA [APL A12]
- IFNγ Levels in Splenocyte Culture ([1]; mice gavaged with 50 μg APL A12 8 times over 2 weeks, splenocytes cultured with PBS): 2 ± 3 pg/mL
- IFNγ Levels in Splenocyte Culture ([1]; mice gavaged with 50 μg APL A12, splenocytes cultured with APL A12 50 μg/ml): 5 ± 10 pg/mL
- IFNγ Levels in Splenocyte Culture ([1]; mice gavaged with 50 μg APL A12, splenocytes cultured with CII263-270 50 μg/ml): 12 ± 20 pg/mL
- IFNγ Levels in Splenocyte Culture ([1]; mice gavaged with PBS, splenocytes cultured with APL A12 50 μg/ml): 65 ± 52 pg/mL
- IL-1ra (RA PBMC [2]): 2013 ± 220 pg/mL
- IL-2 (RA PBMC [2]): 6 ± 0.9 pg/mL
- IL-10 (RA PBMC [2]): 555 ± 104 pg/mL
- IP-10 (RA PBMC [2]): 114 ± 91 pg/mL
- PDGF-bb (RA PBMC [2]): 39 ± 25 pg/mL
- RANTES (RA PBMC [2]): 750 ± 183 pg/mL
- TNFα (RA PBMC [2]): 84 ± 17 pg/mL
- IFNγ production by RA PBMC (RA PBMC [3]; APL A12 alone, without α1(II), data not shown): no change from PBS control
- RA patients who responded to APL A12 in vitro (RA PBMC [3]; NIH oral CII study): 50%
- patients with IFNγ production down-regulated by ≧50% (RA PBMC [3]; patients with the RA susceptibility shared epitope): 7 of 10
- patients with IFNγ production down-regulated by ≧50% (RA PBMC [3]; patients without the shared epitopes): 2 of 6
- IFNy Stimulation Index (RA PBMC [3]; α1(II) + APL A12 1 μg/ml, individual patients with No Shared Epitope): 49 and 45 and 1120 and 928 and 586 and 75
- IFNy Stimulation Index (RA PBMC [3]; α1(II) + APL A12 1 μg/ml, individual patients with Shared Epitope): 139 and 49 and 742 and 908 and 3190 and 85 and 203 and −65 and −74
- IFNy Stimulation Index (RA PBMC [3]; α1(II) + APL A12 1 μg/ml, individual patients, HLA Unknown): 42 and 228
- IFNy Stimulation Index (RA PBMC [3]; α1(II) + APL A12 10 μg/ml, individual patients with No Shared Epitope): 12 and −3 and 1220 and 807 and 479 and 91
- IFNy Stimulation Index (RA PBMC [3]; α1(II) + APL A12 10 μg/ml, individual patients with Shared Epitope): 291 and 68 and 37 and 1220 and 644 and 2111 and 93 and 110 and −54 and −66
- IFNy Stimulation Index (RA PBMC [3]; α1(II) + APL A12 10 μg/ml, individual patients, HLA Unknown): 73 and 180
- IFNy Stimulation Index (RA PBMC [3]; α1(II) + APL A12 25 μg/ml, individual patients with No Shared Epitope): 16 and 50 and 934 and 778 and 357 and 106
- IFNy Stimulation Index (RA PBMC [3]; α1(II) + APL A12 25 μg/ml, individual patients with Shared Epitope): 15 and 113 and 123 and 493 and 1350 and 2620 and 154 and 83 and −24 and 1
- IFNy Stimulation Index (RA PBMC [3]; α1(II) + APL A12 25 μg/ml, individual patients, HLA Unknown): 121 and 214
- Zap-70 phosphorylation (Zap-70): little effect
- immunity to CII and arthritis (DR4 mice): profoundly suppress
- II-10 Levels in Peyer's Patch Cultures [4, 7]: 116 pg/mL
- IL-17 Levels in Peyer's Patch Cultures [4, 7]: 2.4 pg/mL
- II-10 Levels in Peyer's Patch Cultures [4, 8]: 105 pg/mL
- IL-17 Levels in Peyer's Patch Cultures [4, 8]: 1.8 pg/mL
- II-10 Levels in Peyer's Patch Cultures [4, 9]: 94 pg/mL
- IL-17 Levels in Peyer's Patch Cultures [4, 9]: 2.4 pg/mL
- II-10 Levels in Peyer's Patch Cultures [4, 10]: 27 pg/mL
- IL-17 Levels in Peyer's Patch Cultures [4, 10]: 16 pg/mL
- arthritis severity (DR1 Transgenic mice; 10 μg gavaged 8 days over two weeks before CII immunization): significantly reduced
- arthritis severity (DR1 Transgenic mice; 50 μg gavaged 8 days over two weeks before CII immunization): significantly reduced
- most effective dose (DR1 Transgenic mice; given orally by gavage): 50 µg/day
- development of arthritis induced by immunization with bovine CII (DR1 Transgenic mice; low oral dose (10-50 μg), mice transgenic for human DR1): protects
- CII induced arthritis (DR1 Transgenic mice; mice bearing a transgene for human DR1): effective in reducing
- IFN-γ [5, 11]: 0 pg/mL
- IL-10 [5, 11]: 808 pg/mL
- Il-4 [5, 11]: 31 pg/mL
- IFN-γ [5, 12]: 2,225 pg/ml
- IL-10 [5, 12]: 248 pg/mL
- Il-4 [5, 12]: 0 pg/mL
- IFN-γ [5, 13]: 175 pg/mL
- IL-10 [5, 13]: 792 pg/mL
- Il-4 [5, 13]: 23 pg/mL
- IFN-γ [5, 14]: 0 pg/mL
- IL-10 [5, 14]: 680 pg/mL
- Il-4 [5, 14]: 45 pg/mL
- IFN-γ [5, 15]: 0 pg/mL
- IL-10 [5, 15]: 610 pg/mL
- Il-4 [5, 15]: 40 pg/mL
- Syk phosphorylation [6]: induced significant Syk phosphorylation
